Measured values published in ChEMBL document CHEMBL5050844 (2019).

How the values were obtained:
[1] = biological target: T1, E3 ubiquitin-protein ligase CBL-B (Homo sapiens, UniProt Q13191); assay: Inhibition of N-terminal Avi-tagged human CBL-B (36 to 427 residues) incubated with 60 nM Src kinase for 1.5 hrs followed by incubation with fluorescently labeled UbcH5B-Ub for 1 hr and measured by TR-FRET assay; type: single protein
[2] = biological target: T1, E3 ubiquitin-protein ligase CBL-B; assay: Binding affinity towards N-terminal biotinylated Avi-tagged human CBL-B (36 to 427 residues) measured by surface plasmon resonance assay
[3] = Induction of anti-CD3/CD28 antibodies-stimulated human T cell activation at 4 uM assessed fold increase in IL-2 secretion measured by ELISA assay; type: functional, T cell line
[4] = Induction of anti-CD3/CD28 antibodies-stimulated human T cell activation at 1 uM assessed fold increase in IL-2 secretion measured by ELISA assay; type: functional, T cell line
[5] = Induction of anti-CD3/CD28 antibodies-stimulated human T cell activation at 0.3 uM assessed fold increase in IL-2 secretion measured by ELISA assay; type: functional, T cell line
[6] = Induction of anti-CD3 antibodies-stimulated human T cell activation at 8 uM assessed fold increase in IL-2 secretion measured by ELISA assay; type: functional, T cell line; also: reference of the scale not given here
[7] = Induction of anti-CD3 antibodies-stimulated human T cell activation at 1 uM assessed fold increase in IL-2 secretion measured by ELISA assay; type: functional, T cell line; also: reference of the scale not given here
[8] = Induction of anti-CD3/CD28 antibodies-stimulated human T cell activation at 4 uM assessed fold increase in CD25 expression measured by ELISA assay; type: functional, T cell line
[9] = Induction of anti-CD3/CD28 antibodies-stimulated human T cell activation at 1 uM assessed fold increase in CD25 expression measured by ELISA assay; type: functional, T cell line
[10] = Induction of anti-CD3/CD28 antibodies-stimulated human T cell activation at 0.3 uM assessed fold increase in CD25 expression measured by ELISA assay; type: functional, T cell line
[11] = Induction of anti-CD3 antibodies-stimulated human T cell activation at 8 uM assessed fold increase in CD25 expression measured by ELISA assay; type: functional, T cell line; also: reference of the scale not given here
[12] = Induction of anti-CD3 antibodies-stimulated human T cell activation at 1 uM assessed fold increase in CD25 expression measured by ELISA assay; type: functional, T cell line; also: reference of the scale not given here

T1 sequence (Q13191 whole entry, the tested form may be a part): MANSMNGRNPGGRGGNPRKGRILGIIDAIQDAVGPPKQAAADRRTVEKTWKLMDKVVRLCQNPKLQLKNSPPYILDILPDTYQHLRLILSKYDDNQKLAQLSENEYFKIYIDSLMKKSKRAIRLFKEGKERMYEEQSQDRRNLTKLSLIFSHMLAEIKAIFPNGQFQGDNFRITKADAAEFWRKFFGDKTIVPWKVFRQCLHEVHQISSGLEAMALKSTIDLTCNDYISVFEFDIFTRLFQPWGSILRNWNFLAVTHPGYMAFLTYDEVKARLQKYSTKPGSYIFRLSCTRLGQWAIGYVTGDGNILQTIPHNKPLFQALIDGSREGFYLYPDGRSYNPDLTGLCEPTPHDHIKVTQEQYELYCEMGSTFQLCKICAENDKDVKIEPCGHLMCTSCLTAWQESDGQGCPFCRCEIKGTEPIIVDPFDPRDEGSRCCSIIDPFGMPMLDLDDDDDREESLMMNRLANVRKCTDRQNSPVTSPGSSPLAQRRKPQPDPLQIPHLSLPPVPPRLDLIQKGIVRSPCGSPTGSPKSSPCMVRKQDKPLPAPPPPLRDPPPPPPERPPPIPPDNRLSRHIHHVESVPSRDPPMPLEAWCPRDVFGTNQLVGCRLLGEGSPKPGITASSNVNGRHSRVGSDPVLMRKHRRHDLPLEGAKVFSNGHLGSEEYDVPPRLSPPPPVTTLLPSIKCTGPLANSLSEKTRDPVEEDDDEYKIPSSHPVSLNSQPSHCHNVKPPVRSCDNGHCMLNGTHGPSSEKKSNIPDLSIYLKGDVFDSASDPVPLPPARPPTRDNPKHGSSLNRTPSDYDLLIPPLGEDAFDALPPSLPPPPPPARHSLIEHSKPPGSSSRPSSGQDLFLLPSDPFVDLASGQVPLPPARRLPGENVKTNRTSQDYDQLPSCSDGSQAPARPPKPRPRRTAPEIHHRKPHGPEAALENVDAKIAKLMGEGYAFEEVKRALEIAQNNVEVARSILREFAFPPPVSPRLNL

| SMILES | IC50 [1] | Kd [2] | fold change (FC) [3] | fold change (FC) [4] | fold change (FC) [5] | fold change (FC) [6] | fold change (FC) [7] | fold change (FC) [8] | fold change (FC) [9] | fold change (FC) [10] | fold change (FC) [11] | fold change (FC) [12] |
| --- | --- | --- | --- | --- | --- | --- | --- | --- | --- | --- | --- | --- |
| CCOc1cc([C@H](C)Cc2nncn2C)cc(N2Cc3c(cccc3C(F)(F)F)C2=O)n1 | < 100 nM | < 100 nM | >=7.5 | 5 | 2.51 | >=0.201 | 0.151 | 1.31 | 1.31 | 1.01 | >=1.001 | >=1.001 |
| Cn1cnnc1CC1(c2cccc(N3Cc4c(cc(CN5CCC(F)(F)C5)cc4C(F)(F)F)C3=O)c2)COC1 | < 100 nM | < 100 nM | >=7.5 | >=7.5 | 2.51 | >=0.201 | >=0.201 | 1.01 | 1.01 | 1.01 | >=1.001 | >=1.001 |
| C[C@H](Cc1nncn1C)c1cccc(N2Cc3c(cc(N[C@H]4CCNC4)cc3C(F)(F)F)C2=O)c1 | < 100 nM | < 100 nM | 2.51 | 2.51 | 1.01 | 0.151 | 0.101 | 1.01 | 1.01 | 1.01 | >=1.001 | 0.801 |
| Cc1[nH]ncc1-c1cc2c(c(C(F)(F)F)c1)CN(c1cccc([C@H](C)Cc3nncn3C)c1)C2=O | < 100 nM | < 100 nM | >=7.5 | 5 | 2.51 | >=0.201 | 0.151 | 1.51 | 1.51 | 1.31 | >=1.001 | 0.801 |
| C[C@H](Cc1nncn1C)c1cccc(N2Cc3c(cc(CN4CC[C@@H](F)C4)cc3C(F)(F)F)C2=O)c1 | < 100 nM | < 100 nM | >=7.5 | >=7.5 | 5 | >=0.201 | >=0.201 | 1.31 | 1.01 | 1.01 | >=1.001 | >=1.001 |
| C[C@H](Cc1nncn1C)c1cccc(N2Cc3c(cc(CN4CC(F)(F)C4)cc3C(F)(F)F)C2=O)c1 | < 100 nM | < 100 nM | >=7.5 | >=7.5 | 5 | >=0.201 | 0.151 | 1.31 | 1.31 | 1.01 | >=1.001 | >=1.001 |
| Cc1c[nH]nc1-c1cc2c(c(C(F)(F)F)c1)CN(c1cccc([C@H](C)Cc3nncn3C)c1)C2=O | < 100 nM | < 100 nM | >=7.5 | 5 | 1.01 | >=0.201 | >=0.201 | >=1.76 | 1.51 | 1.31 | 0.801 | 0.601 |
| Cn1cnnc1C(F)(F)[C@](C)(F)c1cccc(N2Cc3c(cc(CN4CC[C@@H](S(C)(=O)=O)C4)cc3C(F)(F)F)C2=O)c1 | < 100 nM | < 100 nM | >=7.5 | 5 | 2.51 | >=0.201 | 0.151 | 1.31 | 1.01 | 1.01 | >=1.001 | 0.801 |
| C[C@H](Cc1nncn1C)c1cccc(N2Cc3c(cc(C(=O)N4CC[C@H](O)C4)cc3C(F)(F)F)C2=O)c1 | < 100 nM | < 100 nM | >=7.5 | 2.51 | 1.01 | >=0.201 | 0.151 | 1.31 | 1.01 | 1.01 | >=1.001 | 0.801 |
| C[C@H](Cc1nncn1C)c1cccc(N2Cc3c(cc(CN4CC(F)C4)cc3C(F)(F)F)C2=O)c1 | < 100 nM | < 100 nM | >=7.5 | >=7.5 | 2.51 | >=0.201 | 0.151 | 1.31 | 1.01 | 1.01 | >=1.001 | >=1.001 |
| C[C@H](Cc1nncn1C)c1cccc(N2Cc3c(cc(CN4C[C@@H](O)[C@H](F)C4)cc3C(F)(F)F)C2=O)c1 | < 100 nM | < 100 nM | >=7.5 | >=7.5 | 2.51 | >=0.201 | >=0.201 | 1.31 | 1.31 | 1.01 | >=1.001 | >=1.001 |
| C[C@H](CC1=NN=CC1C(F)(F)F)c1cccc(N2Cc3c(cc(C(=O)N4CC[C@H](O)C4)cc3C(F)(F)F)C2=O)c1 (stereo partly drawn) | < 100 nM | < 100 nM | 2.51 | 1.01 | 1.01 | 0.151 | 0.051 | 1.01 | 1.01 | 1.01 | >=1.001 | 0.801 |
| CC(C)Nc1cc([C@H](C)Cc2nncn2C)cc(N2Cc3c(cccc3C(F)(F)F)C2=O)n1 | < 100 nM | < 100 nM | >=7.5 | 2.51 | 1.01 | >=0.201 | 0.101 | 1.31 | 1.01 | 1.01 | >=1.001 | 0.801 |
| CCNc1cc([C@H](C)Cc2nncn2C)cc(N2Cc3c(cccc3C(F)(F)F)C2=O)n1 | < 100 nM | < 100 nM | >=7.5 | >=7.5 | 2.51 | >=0.201 | >=0.201 | 1.51 | 1.51 | 1.31 | >=1.001 | >=1.001 |
